Assays:
[1] = system: SH-SY5Y neuroblastoma cell line; test: Neuroprotection assay: SH-SY5Y viability (MTT) after H2O2 damage; assay type: cell-based; settings: H2O2 100 μM, RES 10 μM, MTT 24 h
Method: The SH-SY5Y neuroblastoma cell line was cultured in petri dishes pre-treated with collagen (100 μg/ml) with F12 medium supplemented with penicillin/streptomycin and 10% inactivated fetal bovine serum.
(§1) Cell viability assays with neurons were prepared in 96-well plates pre-treated with collagen by seeding 20,000 cells/well in a volume of 100 μl and incubating the cells for 24 h before the addition of the compounds. The compounds to be tested were dissolved in DMSO and added in three different concentrations (1, 10 and 100 μM) in order to determine their toxicity. The final percentage of DMSO in each well was adjusted to 1%. The cell viability was evaluated 24 h after the addition of the compounds by means of the MTT assay according to the manufacturer's method. Mean values and standard deviations were calculated from at least 8 different measurements from several independent experiments.
Neuroprotection assays. […] The cell viability was evaluated 24 h after the addition of the compounds by means of the MTT assay according to the manufacturer's method. Mean values and standard deviations were calculated from at least 8 different measurements from several independent experiments. Neuronal recovery was calculated by normalizing the results of the neuronal viability experiments after the addition of our compounds and H2O2 to the positive control of each experiment (neurons+H2O2).

[2] = system: RAW 264.7 macrophages; test: Mitigation of LPS damage: RAW 264.7 macrophage viability (MTT); assay type: cell-based; settings: LPS 100 ng/ml, RES 10 μM, MTT 24 h
Method: RAW 264.7 macrophages were cultured in P75 with high-glucose DMEm supplemented with penicillin/streptomycin and 10% inactivated fetal bovine serum.
as §1, with “The cell viability” for “Cell viability”, “with RAW macrophages” for “with neurons”, “plates” for “plates pre-treated with collagen”, “seeding 25,000” for “seeding 20,000”, “for 4” for “for 24”
Testing of mitigation of damage caused by the addition of LPS. The RAW 264.7 macrophages were cultured according to the procedure described above. […] The cell viability was evaluated 24 h after the addition of the compounds by means of the MTT assay according to the manufacturer's method. Mean values and standard deviations were calculated from at least 8 different measurements from several independent experiments.

[3] = system: zebrafish larva (Danio rerio); test: Neuroprotection in PTZ-induced neurotoxicity model, AChE activity in zebrafish larvae; assay type: in vivo; settings: 5 dpf larvae, 10 μM, 5 mM PTZ for 6 hours
Method: The objective of this assay was to analyze the protective effect of compound 2 and of the resveratrol (RES) control in a model of neurotoxicity induced by the neurotoxin pentylenetetrazole (PTZ). As an experimental model, the zebrafish larva (Danio rerio) was used to study the effect of the compounds on acetylcholinesterase activity (AChE) in larvae at 5 days post-fertilization (dpf).
Zebrafish embryos were seeded in 50 ml of dilution water (AD) in a Petri dish and grown to 5 dpf (larval stage). […] Next, the larvae were transferred using a Pasteur pipette to a 24-well microplate, so that each well contained five larvae, making ten replicates per condition. First, the pre-treatment of the 5 dpf larvae was performed. […] After this incubation period, all of the larvae were examined, and it was determined that the general state of the larvae was totally normal, without any visible anomaly or anomalous behavior. […]
Determination of AChE levels. […] In addition, the determination of total protein of each experimental group was carried out according to the technical study protocol (Quantification of protein by BCA, as a normalization process). Finally, the AChE levels determined in the control group were taken as a reference measurement and deemed to be 100%.

Row | Compound | recovery of cell viability [1] | recovery of cell viability [2] | AChE activity decrease induced by PTZ [3]
1 | Oc1ccc(C=Cc2cc(O)cc(O)c2)cc1 [RES, resveratrol, reference compound] | up to 50% | up to 82% | –
2 | CCCCCCCC(=O)OCC1OC(Oc2cc(O)cc(/C=C/c3ccc(O)cc3)c2)C(O)C(O)C1O [Compound 2, trans-resveratrol-3-O-(6′-O-octanoyl)-β-D-glucopyranoside] | – | – | significantly prevents the decrease in AChE activity
